As a reminder, the IC50 is the concentration at which inhibition is half-maximal.

One data set concerns the target T1, isolated rat aorta rings (Rattus norvegicus, UniProt P26684).
T1 construct: Rings with a length of 5 mm were cut out from the thorax aorta of adult Wistar-Kyoto rats; from tissue; host or cells: thoracic aorta of adult Wistar-Kyoto rats, endothelium removed
T1 sequence (P26684 21-426): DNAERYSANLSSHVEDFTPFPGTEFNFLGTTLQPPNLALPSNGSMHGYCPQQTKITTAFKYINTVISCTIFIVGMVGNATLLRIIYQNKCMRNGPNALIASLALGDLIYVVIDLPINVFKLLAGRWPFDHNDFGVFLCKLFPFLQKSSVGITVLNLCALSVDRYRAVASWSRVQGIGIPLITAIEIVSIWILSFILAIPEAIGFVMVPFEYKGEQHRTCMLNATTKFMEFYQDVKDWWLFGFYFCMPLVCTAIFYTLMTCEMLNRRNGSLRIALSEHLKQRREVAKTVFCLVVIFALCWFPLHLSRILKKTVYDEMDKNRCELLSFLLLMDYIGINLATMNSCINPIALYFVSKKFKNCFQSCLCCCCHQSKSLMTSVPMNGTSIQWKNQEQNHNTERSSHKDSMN
Kind of data set: Inhibition of endothelin-induced contractions in isolated rat aorta rings. Further details: species or system adult Wistar-Kyoto rats. As to conditions: rat aorta rings without endothelium, 37° C.; endothelin-1 cumulative; from dose ratio; read-out: pA2 (converted). The protocol: Rings with a length of 5 mm were cut out from the thorax aorta of adult Wistar-Kyoto rats. The endothelium was removed by lightly rubbing the internal surface. Each ring was immersed at 37° C. in 10 ml of Krebs-Henseleit solution in an isolated bath while gassing with 95% O2 and 5% CO2. The isometric stretching of the rings was measured. The rings were stretched to a pre-tension of 3 g.
The corresponding pA2 value, which is a measure of the activity of the test compound, was calculated using a computer programme according to the following equation from the "dose ratio" DR for each individual dosage-activity curve.
pA2 =log(DR-1)-log(antagonist-concentration)

For data set [1], the target named is T2, recombinant human ETA receptors (Homo sapiens, UniProt P25101).
T2 sequence (P25101 21-427): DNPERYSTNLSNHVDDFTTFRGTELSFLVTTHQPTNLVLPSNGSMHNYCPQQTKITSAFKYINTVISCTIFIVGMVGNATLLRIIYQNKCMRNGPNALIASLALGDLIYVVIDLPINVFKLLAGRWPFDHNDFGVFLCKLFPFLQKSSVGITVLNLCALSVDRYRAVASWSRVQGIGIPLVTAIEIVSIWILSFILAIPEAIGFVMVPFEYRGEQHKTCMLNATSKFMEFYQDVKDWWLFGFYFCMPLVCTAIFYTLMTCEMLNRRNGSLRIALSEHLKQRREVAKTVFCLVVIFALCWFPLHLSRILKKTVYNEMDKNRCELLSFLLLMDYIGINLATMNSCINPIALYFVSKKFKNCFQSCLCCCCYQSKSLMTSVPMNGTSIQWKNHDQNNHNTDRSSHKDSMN
In words: Inhibition of endothelin binding on recombinant human ETA receptors expressed in CHO cells ([125I]ET-1, whole attached cells). Also noted: expressed in transfected cells; host or cells: CHO cells. Conditions: 35 pM [125I]ET-1, 2 h, 22° C. The procedure:
II. […] Cell culture. CHO cells, expressing recombinant human ETA receptor are grown in Minimal Essential Alpha Medium (Gibco Laboratories, Paisley, Scotland) supplemented with 0.1 μM methotrexate, 5% dialyzed fetal calf serum, 100 U/ml of penicillin and 100 μg/ml of streptomycin. Binding assays with whole attached cells are performed in 500 μl Dulbecco's Eagle medium (DMEM) containing 2 mg/ml bovine serum albumin and 25 mM Hepes. After incubation (2 h, 22° C.) in the presence of 35 pM [^125 I]ET-1 and increasing concentrations of various antagonists, the cells are extensively washed and finally solubilized in 1% (w/v) SDS, 0.5 M NaOH and 100 mM EDTA. Each assay is performed three times in triplicates and non specific binding is assessed in the presence of 100 nM unlabelled ET-1. Specific binding is defined as the difference between total binding and non specific binding. IC50 values are determined after logit/log transformation of the binding data.

For data set [2], the target named is T2, recombinant human ETA receptors. In words: Inhibition of endothelin binding to recombinant human ETA receptors expressed in baculovirus-infected insect cells (125I-endothelin). As to conditions: 125I-endothelin 20 pM; baculovirus-infected insect cell membranes; 20° C. for 2 hours or 4° C. for 24 hours. The procedure:
I. […] A cDNA coding for human ETA receptors of human placenta was cloned ([…]. Yang, Y. Furuichi and C. Miyamoto, BBRC 180, 1265-1272) and expressed in the Baculovirus-insect cell system. Baculovirus-infected insect cells from a 23 1 fermenter are centrifuged off (3000×g, 15 minutes, 4° C.) 60 hours after the infection, re-suspended in Tris buffer (5 mM, pH 7.4, 1 mM MgCl2) and again centrifuged. After a further re-suspension and centrifugation the cells are suspended in 800 ml of the same buffer and […] at -120° C. The cells disintegrate when the suspension in this hypotonic buffer mixture is thawed. After a repeated […]/thawing cycle the suspension is homogenised and centrifuged (25000×g, 15 minutes, 4° C.). After suspension in Tris buffer (75 mM, pH 7.4, 25 mM MgCl2, 250 mM sucrose) 1 ml aliquots (protein content about 3.5 mg/ml) are stored at -85° C. […] The incubation is carried out at 20° C. for 2 hours or at 4° C. for 24 hours. The separation of free and membrane-bound radio-ligands is carried out by filtration over a glass fibre filter.

Data set [3] in a line: Pharmacokinetics of the endothelin receptor antagonists after oral gavage in rats. The data set is classed as in vivo. As to conditions: rat, plasma, 5 mg/kg in DMSO, Wistar rats, bioassay; for AUC: read-out: Area under the plasma concentration time curve; for Cmax: read-out: Peak concentration in rat plasma. The protocol:
IV. […] The test compounds were dissolved in DMSO at a concentration of 5 mg/mL and administered orally by gavage at a dose of 1 mL/kg body weight corresponding to 5 mg/kg body weight. Two rats were administered per test compound. Blood samples were collected from the retro-orbital sinus at 1 and 5 h post dose in one rat, and at 3 and 7 h post dose in the other rat. In addition a terminal 24 h blood sample was collected from both rats by heart puncture. Blood was collected on EDTA-NaF. Plasma was derived by centrifugation at 2000 g at +4° C. for 15 min. Plasma samples were assayed for active drug related material with a bioassay, based on the binding competition of tested compounds and ^125 I ET-1 on recombinant ETA receptors. Quantitation of plasma samples was by comparison to a calibration curve build up from control rat plasma spiked with known concentrations of the test compounds.

SMILES strings stand for the structures.

For the compound `COc1ccccc1Oc1c(NS(=O)(=O)c2ccc(C(C)C)cn2)nc(-c2ccnc(OCCO)c2)nc1OC` [Example 57, 5-isopropyl-pyridine-2-sulfonic acid [2-[2-(2-hydroxy-ethoxy)-pyridin-4-yl]-6-methoxy-5-(2-methoxy-phenoxy)-pyrimidin-4-yl]-amide], the Kb at isolated rat aorta rings is not above 6.31 nM. On to `COc1ccccc1Oc1c(NS(=O)(=O)c2ccc(C)cn2)nc(-c2ccnc(CNC(C)=O)c2)nc1OC` [Example 30, N-{4-[4-methoxy-5-(2-methoxy-phenoxy)-6-(5-methyl-pyridine-2-sulfonylamino)-pyrimidin-2-yl]-pyridin-2-ylmethyl}-acetamide], for which the half-inhibitory concentration (IC50) in data set [1] was not above 10 nM. In the case of `COc1ccccc1Oc1c(NS(=O)(=O)c2ccc(C)cn2)nc(-c2ccnc(C(=N)NO)c2)nc1OC` [Example 34, N-hydroxy-4-[4-methoxy-5-(2-methoxy-phenoxy)-6-(5-methyl-pyridine-2-sulfonylamino)-pyrimidin-2-yl]-pyridine-2-carboxamidine], in data set [2], the IC50 is not above 50 nM. On the same count and under the same terms, to `C=C(C)c1ccc(S(=O)(=O)Nc2nc(-c3cccc(O)c3)nc(OC)c2Oc2ccccc2OC)nc1` [Example 15, 5-isopropenyl-pyridine-2-sulfonic acid [2-(3-hydroxy-phenyl)-6-methoxy-5-(2-methoxy-phenoxy)-pyrimidin-4-yl]-amide] belongs not above 50 nM; to `COc1ccccc1Oc1c(NS(=O)(=O)c2ccc(C)cn2)nc(-c2ccnc(C(=O)OCCO)c2)nc1OC` [Example 25, 4-[4-methoxy-5-(2-methoxy-phenoxy)-6-(5-methyl-pyridine-2-sulfonylamino)-pyrimidin-2-yl]-pyridine-2-carboxylic acid 2-hydroxy-ethyl ester], not above 50 nM; to `CNC(=O)c1cc(-c2nc(NS(=O)(=O)c3ccc(C(C)C)cn3)c(Oc3ccccc3OC)c(OC)n2)ccn1` [Example 48, 4-[4-(5-isopropyl-pyridine-2-sulfonylamino)-6-methoxy-5-(2-methoxy-phenoxy)-pyrimidin-2-yl]-pyridine-2-carboxylic acid methylamide], not above 50 nM. Consider `COc1ccccc1Oc1c(NS(=O)(=O)c2ccc(C)cn2)nc(-c2ccnc(OCCO)c2)nc1OC` [Example 36, 5-methyl-pyridine-2-sulfonic acid [2-[2-(2-hydroxy-ethoxy)-pyridin-4-yl]-6-methoxy-5-(2-methoxy-phenoxy)-pyrimidin-4-yl]-amide], for which the IC50 in data set [1] is not above 10 nM. Take `COc1ccccc1Oc1c(NS(=O)(=O)c2ccc(C(C)C)cn2)nc(-c2ccnc(C(=O)N(C)C)c2)nc1OC` [Example 51, 4-[4-(5-isopropyl-pyridine-2-sulfonylamino)-6-methoxy-5-(2-methoxy-phenoxy)-pyrimidin-2-yl]-pyridine-2-carboxylic acid dimethylamide]: the half-inhibitory concentration (IC50) in data set [2] was not above 50 nM.

Take `COC(=O)COc1cccc(-c2nc(NS(=O)(=O)c3ccc(C)cn3)c(Oc3ccccc3OC)c(OC)n2)c1` [Example 2, {3-[4-methoxy-5-(2-methoxy-phenoxy)-6-(5-methyl-pyridine-2-sulfonylamino)-pyrimidin-2-yl]-phenoxy}-acetic acid methyl ester]: the concentration for half-maximal inhibition (IC50) in data set [1] was not above 10 nM. In the case of `COc1ccccc1Oc1c(NS(=O)(=O)c2ccc(C(C)C)cn2)nc(-c2ccnc(-c3noc(C)n3)c2)nc1OC` [Example 56, 5-isopropyl-pyridine-2-sulfonic acid {6-methoxy-5-(2-methoxy-phenoxy)-2-[2-(5-methyl-[1,2,4]oxadiazol-3-yl)-pyridin-4-yl]-pyrimidin-4-yl}-amide], in data set [2], the IC50 is not above 50 nM. Turning to `COc1ccccc1Oc1c(NS(=O)(=O)c2ccc(C(C)C)cn2)nc(-c2ccnc(CO)c2)nc1OC` [Example 44, 5-isopropyl-pyridine-2-sulfonic acid [2-(2-hydroxymethyl-pyridin-4-yl)-6-methoxy-5-(2-methoxy-phenoxy)-pyrimidin-4-yl]-amide], on isolated rat aorta rings, the Kb was not above 6.31 nM. In the case of `COc1ccccc1Oc1c(NS(=O)(=O)c2ccc(C)cn2)nc(-c2ccnc(C#N)c2)nc1OC` [Example 19, 5-methyl-pyridine-2-sulfonic acid [2-(2-cyano-pyridin-4-yl)-6-methoxy-5-(2-methoxy-phenoxy)-pyrimidin-4-yl]-amide], in data set [3], the AUC was not below 10000 ng·h/mL and the Cmax was not below 1500 ng/mL. In addition, the IC50 in data set [1] was not above 10 nM. On to `COc1ccccc1Oc1c(NS(=O)(=O)c2ccc(C)cn2)nc(-c2ccnc(CO)c2)nc1OC` [Example 29, 5-methyl-pyridine-2-sulfonic acid [2-(2-hydroxymethyl-pyridin-4-yl)-6-methoxy-5-(2-methoxy-phenoxy)-pyrimidin-4-yl]-amide], for which the half-maximal inhibitory concentration (IC50) in data set [2] is not above 50 nM; in data set [1] it was not above 10 nM. Turning to `CCS(=O)(=O)NCc1cc(-c2nc(NS(=O)(=O)c3ccc(C)cn3)c(Oc3ccccc3OC)c(OC)n2)ccn1` [Example 32, 5-methyl-pyridine-2-sulfonic acid [2-[2-(ethanesulfonylamino-methyl)-pyridin-4-yl]-6-methoxy-5-(2-methoxy-phenoxy)-pyrimidin-4-yl]-amide], the half-maximal inhibitory concentration (IC50) in data set [2] was not above 50 nM. As to `CCOc1cc(-c2nc(NS(=O)(=O)c3ccc(C)cn3)c(Oc3ccccc3OC)c(OC)n2)ccn1` [Example 38, 5-methyl-pyridine-2-sulfonic acid [2-(2-ethoxy-pyridin-4-yl)-6-methoxy-5-(2-methoxy-phenoxy)-pyrimidin-4-yl]-amide], in data set [2], the IC50 is not above 50 nM. In the case of `COC(=O)c1cc(-c2nc(NS(=O)(=O)c3ccc(C)cn3)c(Oc3ccccc3OC)c(OC)n2)ccn1` [Example 22, 4-[4-methoxy-5-(2-methoxy-phenoxy)-6-(5-methyl-pyridine-2-sulfonylamino)-pyrimidin-2-yl]-pyridine-2-carboxylic acid methyl ester], in data set [2], the concentration for half-maximal inhibition (IC50) is not above 50 nM. For the same compound, in data set [3], the AUC was not below 10000 ng·h/mL and the Cmax was not below 1500 ng/mL.

Source of the values: patent US6242601A, “Heterocyclic sulfamides” (Hoffman-La Roche Inc., priority 1999, dated 2001).
